Assay results as given in patent US20140100156A1 (SANOFI, priority 2012, published 2014).

Experiments:
female NMRI-mice [1] = experiment: Automated assessment of feed intake in mice; format: in vivo; details: 22 hours
Experimental: Female NMRI-mice of a body weight between 20 and 30 g were used. Mice were adapted to housing conditions for at least one week and for at least one day single-caged in the assessment equipment, when basal data were recorded simultaneously. On the study day, test product was administered subcutaneously close to the lights-off phase (12 h lights off) and assessment of feed consumption was directly started afterwards. Assessment included continued monitoring (every 30 min) over 22 hours. Repetition of this procedure over several days was possible. Restriction of assessment to 22 hours was for practical reasons to allow for reweighing of animals, refilling of feed and water and drug administration between procedures. Results could be assessed as cumulated data over 22 hours or differentiated to 30 min intervals.
Statistical analyses were performed with Everstat 6.0 by two-way ANOVA on repeated measures and Dunnetts post-hoc analyses. Differences were considered statistically significant at the p<0.05 level.
Fed female NMRI-mice, weighing on average 25-30 g, were administered 0.01 or 0.1 mg/kg of SEQ ID NO: 97 or phosphate buffered saline (vehicle control) subcutaneously, directly prior to start of feeding monitoring (time=0 h). Lights-off phase (dark phase) started 4 hours later.

female NMRI-mice [2] = experiment: Gastric emptying and intestinal passage in mice; format: in vivo
Experimental: Female NMRI-mice of a body weight between 20 and 30 g were used. Mice were adapted to housing conditions for at least one week.
Mice were overnight fasted, while water remained available all the time. On the study day, mice were weighed, single-caged and allowed access to 500 mg of feed for 30 min, while water was removed. At the end of the 30 min feeding period, remaining feed was removed and weighed. 60 min later, a coloured, non-caloric bolus was instilled via gavage into the stomach. The test compound/reference compound or its vehicle in the control group was administered subcutaneously, to reach Cmax when coloured bolus was administered. After another 30 min, the animals were sacrificed and the stomach and the small intestine prepared. The filled stomach was weighed, emptied, carefully cleaned and dried and reweighed. The calculated stomach content indicated the degree of gastric emptying. The small intestine was straightened without force and measured in length. Then the distance from the gastric beginning of the gut to the tip of the farthest travelled intestinal content bolus was measured. The intestinal passage was given as relation in percent of the latter distance and the total length of the small intestine.
Statistical analyses were performed with Everstat 6.0 by 1-way-ANOVA, followed by Dunnetts or Newman-Keuls as post-hoc test, respectively. Differences were considered statistically significant at the p<0.05 level. As post hoc test Dunnet's Test was applied to compare versus vehicle control, only. Newman-Keul's Test was applied for all pairwise comparisons (i.e. versus vehicle and reference groups).
30 min later, the assessment of stomach contents and intestinal passage was done (FIG. 1a, b).
In another study, female NMRI-mice, weighing on average 25-30 g, were administered subcutaneously 0.02 and 0.002 mg/kg of SEQ ID NO: 97 or phosphate buffered saline (vehicle control), 30 min prior to the administration of the coloured bolus. 30 min later, the assessment of stomach contents and intestinal passage was done (FIG. 1c, d).

[3] = 0.002 mg/kg s.c., versus PBS-control (second study)
[4] = 0.02 mg/kg s.c., study with reference compound Liraglutide, versus vehicle
[5] = 0.02 mg/kg s.c., versus PBS-control (second study)

Substance: SEQ ID NO: 97: exendin-4 derivative, K(γE-x53) in position 14 (HXQGTFTSDLSKQKDSRRAQDFIEWLKNGGPSSGAPPPS; K14 side chain γE-x53; Exendin-4-analogue)
- reduction of feed intake at the end of the study (female NMRI-mice [1]; 0.01 mg/kg s.c.): 23%
- reduction of feed intake at the end of the study (female NMRI-mice [1]; 0.1 mg/kg s.c.): 66%
- gastric content increased by (female NMRI-mice [2]; [3]): 47%
- intestinal passage reduced by (female NMRI-mice [2]; [3]): 63%
- gastric content increased by (female NMRI-mice [2]; [4]): 90%
- intestinal passage reduced by (female NMRI-mice [2]; [4]): 67%
- gastric content increased by (female NMRI-mice [2]; [5]): 37%
- intestinal passage reduced by (female NMRI-mice [2]; [5]): 43%
